# Laboratory results published in paper PMC4556275 (Drug metabolism and pharmacokinetics, 2010).
# How the values were obtained:
# [1] = Metabolic stability in pooled human liver microsomes; format: in vitro ADME; conditions: for CLint (microsomal): 1 μM substrate, 0.5 mg/mL HLM protein, 37°C; for ER (extraction ratio) / Hepatic CL: well-stirred model, Q 1400 mL/min, fu assumed 1
# [2] = Metabolite profiling in HLM incubations by MRM-IDA-EPI; format: in vitro ADME, human; conditions: HLM incubation, MRM-IDA-EPI method
CLint (microsomal) [1],ER (extraction ratio) [1],Hepatic CL [1] [mL/min],number of metabolites formed and detected [2],Compound
22.8 μl/min/mg microsomal protein,0.44,620.2,Nine,"O=C(C1CCC(F)(F)CC1)N1CC(=O)N2CCc3ccccc3C2C1 (stereo not drawn) [PZ02, 2-(4,4-difluorocyclohexyl)carbonyl-1,2,3,6,7,11b-hexahydro-4H-pyrazino(2,1-α)isoquinoline-4-one]"
16.2 μl/min/mg microsomal protein,0.36,505.5,Eight,"O=C(N1CCC(F)(F)CC1)N1CC(=O)N2CCc3ccccc3C2C1 (stereo not drawn) [PZ10, 2-(4,4-difluoropiperidinyl)carbonyl-1,2,3,6,7,11b-hexa-hydro-4H-pyrazino(2,1-α)isoquinoline-4-one]"
22.0 μl/min/mg microsomal protein,0.43,607.9,,"O=C(N1CCCCC1)N1CC(=O)N2CCc3ccccc3C2C1 (stereo not drawn) [PZ07, 2-piperidinylcarbonyl-1,2,3,6,7,11b-hexa-hydro-4H-pyrazino(2,1-α)isoquinoline-4-one]"
